Test results taken from article PMC9193972, “Candidate Chemosensory Genes Identified in the Adult Antennae of Sympiezomias velatus and Binding Property of Odorant-Binding Protein 15” (Frontiers in Physiology, 2022).

What was measured:
[1] = target: recombinant SvelOBP15; assay: Fluorescence competitive binding assay with 1-NPN as fluorescent reporter; design: species or system Sympiezomias velatus; conditions: for Ki: calculated from IC50, mean ± SE, read-out: Ki (dissociation constant); for Ki / IC50: 1-NPN 2 μmol/L; for IC50: competitor 2 to 20 μmol/L, concentration halving the fluorescence of 1-NPN; for binding to SvelOBP15 (in words): competitive binding, competitor up to 20 μmol/L
Experimental: The whole ORF of SvelOBP15 was successfully validated by RT-PCR and Sanger sequencing and then synthesized (without the signal peptide-encoding region) by Sangon Biotech (Shanghai, China). It was first cloned into the pGEM-T cloning vector (Promega, Madison, United States) and then subcloned into the expression vector pET-30a(+) (Novagen, Darmstadt, Germany). Recombinant SvelOBP15 was expressed in Escherichia coli Transetta (DE3) following induction with 0.5 mM isopropyl-b-D-thiogalactopyranoside (IPTG) after the culture reached an OD600 of 0.4–0.6. Incubation was continued at 37°C with shaking at 220 rpm for an additional 6 h. […] Denaturation and renaturation were performed following previously reported methods ([Liu et al., 2012]). The protein was purified using a HisTrap HP prepacked column (GE Healthcare, Pittsburgh, United States) according to the manufacturer’s instructions, and recombinant enterokinase (rEK) (GenScript Biology Company, Nanjing, China) was used to remove the His-tag. After running the digested protein back through the HisTrap HP prepacked column, the tag-free protein was obtained in the flow-through fraction. Proteins were visualized at all stages of purification by SDS-PAGE.
(§1) Fluorescence competitive binding assays were performed as reported previously ([Liu et al., 2015]). This assay was conducted on a Hitachi F-7000 fluorescence spectrophotometer with a 1-cm light path quartz cuvette and 10-nm slits for both excitation and emission. The excitation wavelength was 337 nm, and the emission spectrum was recorded between 390 and 460 nm. First, to determine the binding affinities of N-phenyl-1-naphthylamine (1-NPN) to OBP15, the fluorescence intensity values at maximum fluorescence emissions were plotted against the free ligand concentration by titrating increasing concentrations of 1-NPN. The binding curves were linearized using Scatchard plots. Next, competitive binding assays of OBP15 to 33 chemicals (Supplementary Table S2) of different structural characteristics were carried out using 1-NPN as the fluorescent reporter at a concentration of 2 μmol/L, whereas the concentration of each competitor varied from 2 to 20 μmol/L. These chemicals included the volatile components of host plants such as peanut, elm, maize, cotton, etc. ([Hammack, 2001]; [Cardoza et al., 2002]; [Ngumbi et al., 2009]; [Cheng et al., 2010]) and aggregation pheromone components of curculionids ([Gries et al., 1993]; [Hallett et al., 1993]; [Eller et al., 1994]; [Szendrei et al., 2011]). Chemicals were purchased from Sigma-Aldrich (St. Louis, United States) (purity >95% or 90%). Based on the assumption that the activity of proteins was 100% with a saturation stoichiometry of 1:1 (protein: ligand), the dissociation constants (Ki) of the competitors were calculated from the IC50 values (the concentrations of the ligands halving the fluorescence of 1-NPN) using the following equation:
Ki = [IC50]/(1 + [1-NPN]/K1-NPN) ([Ban et al., 2003]).Where [1-NPN] is the free concentration of 1-NPN and K1-NPN is the dissociation constant of the complex protein/1-NPN.
Ki values of various compounds (mean ± SE) were subjected to one-way ANOVA followed by Tukey post hoc test for mean comparison using SPSS Statistics 20.0 (SPSS Inc., Chicago, United States).

[2] = target: recombinant SvelOBP15; assay: 1-NPN titration (binding curve, Scatchard plot); design: species or system Sympiezomias velatus; conditions: titration with increasing 1-NPN, read-out: dissociation constant of 1-NPN
Experimental: as §1, with “Based on the assumption that the activity of proteins was 100% with a saturation stoichiometry of 1:1 (protein: ligand), the dissociation constants (Ki) of the competitors were calculated from the IC50 values (the concentrations of the ligands halving the fluorescence of 1-NPN) using the following equation:” left out

[3] = test system: AquaOBP4; design: method as in Wang et al., 2017; conditions: ref Wang et al., 2017; cited from earlier work
[4] = test system: SzeaOBP28; design: method as in Zhang Y. et al., 2019; conditions: ref Zhang Y. et al., 2019; cited from earlier work

`C=CC(C)(O)CCC=C(C)CCC=C(C)C` (mixture of isomers) [Nerolidol] gave a Ki [1] of 12.9 ± 0.43 µM.
With `Cc1cccc2ccccc12` [1-Methylnaphthalene] the IC50 [1] was > 20 µM.
With `c1ccc(Nc2cccc3ccccc23)cc1` [1-NPN, N-phenyl-1-naphthylamine] the Kd [2] was 4.68 ± 0.16 µM.
In the case of `C=CC(O)CCCCC` (stereo not shown) [1-Octen-3-ol], the IC50 [1] is reported as > 20 µM.
For `CC(=O)c1ccc(C)c(C)c1` [3',4'-Dimethylacetophenone], the IC50 [1] was > 20 µM.
For `CCCCC(O)C(C)CC` (stereo not shown) [3-Methyl-4-octanol], the IC50 [1] was > 20 µM.
With `CCc1ccc(C(C)=O)cc1` [4-Ethylacetophenone] the IC50 [1] was > 20 µM.
With `CCCCC(O)C(C)CCC` (stereo not shown) [4-Methyl-5-nonanol] the IC50 [1] was > 20 µM.
For `CCCCC(=O)C(C)CCC` (stereo not shown) [4-Methyl-5-nonanone], the IC50 [1] was > 20 µM.
For `O=C1CCCC1C1CCCC1` (stereo not shown) [(1,1`-Bicyclopentyl)-2-one], the IC50 [1] was > 20 µM.
For `C=C1CC/C=C(\C)CC[C@@H]2[C@@H]1CC2(C)C` [(-)-trans-Caryophyllene], the IC50 [1] was > 20 µM.
With `CC(C)=CCC/C(C)=C/CO` [(E)-3,7-Dimethyl-2,6-octadien-1-ol] the IC50 [1] was > 20 µM.
For `CC(C)=CCC/C(C)=C/CC/C(C)=C/CO` [(E,E)-Farnesol], the IC50 [1] was 9.26 ± 0.43 µM and the Ki [1] was 7.36 ± 0.36 µM.
In the case of `O=Cc1ccccc1` [Benzalehyde], the IC50 [1] is reported as > 20 µM.
With `CC(C)COC(=O)CCCCC(=O)OCC(C)C` [Diisobutyl adipate] the IC50 [1] was > 20 µM.
For `CC(C)COC(=O)c1ccccc1C(=O)OCC(C)C` [Diisobutyl phthalate], the “binding to AquaOBP4 (in words)” value [3] is given as “weakly bound”, the IC50 [1] is given as 15.8 ± 0.42 µM and the Ki [1] is given as 12.6 ± 0.34 µM.
For `CCCCCCCCCCCC` [Dodecane], the IC50 [1] was > 20 µM and the “binding to SvelOBP15 (in words)” value [1] was “cannot be bound”.
For `CC(C)=CCC/C(C)=C/C(=O)O` [Geranic acid], the IC50 [1] was > 20 µM.
Compound `C=C(C)[C@H]1CC=C(C)CC1` [Limonene] has an IC50 [1] of 14.7 ± 0.53 µM and a Ki [1] of 11.7 ± 0.47 µM.
In the case of `C=CC(C)(O)CCC=C(C)C` (stereo not shown) [Linalool], the IC50 [1] is reported as > 20 µM.
With `COC(=O)c1ccccc1O` [Methyl salicylate] the IC50 [1] was > 20 µM.
In the case of `CCCCCCCCC=O` [Nonanal], the IC50 [1] is reported as > 20 µM.
For `CCCCCCCCCCCCCCCC(=O)O` [Palmitic acid], the IC50 [1] was > 20 µM.
With `CCCCCCCCCCCCCCC` [Pentadecane] the IC50 [1] was > 20 µM and the “binding to SvelOBP15 (in words)” value [1] was “cannot be bound”.
In the case of `CCCCCCCCCCCCCC` [Tetradecane], the IC50 [1] is reported as > 20 µM and the “binding to SvelOBP15 (in words)” value [1] is reported as “cannot be bound”.
With `CC/C=C\CCO` [Z-3-hexen-1-ol] the IC50 [1] was > 20 µM.
For `COCCOC(=O)c1ccccc1C(=O)OCCOC` [bis (2-methoxyethyl) phthalate], the “binding to SzeaOBP28 (in words)” value [4] is listed as “exhibited a binding affinity”.
For `CC/C=C\CCOC(C)=O` [cis-3-Hexenyl acetate], the IC50 [1] was > 20 µM.
For `CCCCCCCCCCCCCCCC` [n-Hexadecane], the IC50 [1] was > 20 µM and the “binding to SvelOBP15 (in words)” value [1] was “cannot be bound”.
In the case of `CCC/C=C/COC(C)=O` [trans-2-Hexenyl acetate], the IC50 [1] is reported as > 20 µM.
With `CCC/C=C/C=O` [trans-2-Hexenyl aldehyde] the IC50 [1] was > 20 µM.
For `C=C/C(C)=C/C/C=C(\C)CCC=C(C)C` [α-Farnesene], the IC50 [1] was > 20 µM.
With `C=C/C(C)=C/CC=C(C)C` [β-Ocimene] the IC50 [1] was > 20 µM.
With (+)-α-Pinene the IC50 [1] was > 20 µM.
In the case of (+)-β-Pinene, the IC50 [1] is reported as > 20 µM.
